The record followed here is ChEMBL document CHEMBL1759953, “Antitumor agents 287. Substituted 4-amino-2H-pyran-2-one (APO) analogs reveal a new scaffold from neo-tanshinlactone with in vitro anticancer activity” (2011).

Type in all cases: functional
The subject of one test is KB. Put plainly: Cytotoxicity against human KB cells after 72 hrs by MTT assay. The note with it: read-out: ED50 (the source's name).
For a further test, the system named is DU-145. Put plainly: Cytotoxicity against human DU145 cells after 72 hrs by MTT assay. The note with it: DU-145, 72 h, read-out: ED50 (the source's name).
In a further test the test system is A549. Put plainly: Cytotoxicity against human A549 cells after 72 hrs by MTT assay. The note with it: A549, 72 h, read-out: ED50 (the source's name). On the technique in general: Tetrazolium dyes change colour on reduction, which living cells bring about.
A short description of test [1]: Cytotoxicity against human KBVIN cells after 72 hrs by MTT assay. The note with it: read-out: ED50 (the source's name).
A further test relates to SK-BR-3. Put plainly: Cytotoxicity against human SKBR3 cells after 72 hrs by MTT assay. The note with it: SK-BR-3, 72 h, read-out: ED50 (the source's name).

On to `Cc1ccc(Nc2cc(-c3ccccc3)oc(=O)c2)cc1`, for which the EC50 in the test on KB worked out at 0.064 µM; with DU-145, 0.073 µM; in the test on A549, 0.067 µM; in test [1] it was 0.059 µM; with SK-BR-3, 0.09 µM.

On to `O=c1cc(Nc2ccccc2)cc(-c2ccccc2)o1`, for which the EC50 in the test with KB was found to be 0.13 µM; in the test with DU-145, 0.098 µM; with A549, 0.12 µM; in test [1], 0.15 µM; in the test on SK-BR-3, 0.13 µM.

For the molecule `COc1ccccc1Nc1cc(-c2ccccc2)oc(=O)c1`, the EC50 in the test on KB came out at 0.35 µM; in the test with DU-145, 0.37 µM; in test [1], 0.49 µM; with SK-BR-3, 0.54 µM.

`COc1ccc(Nc2cc(C)oc(=O)c2)cc1`: the EC50 (in the test on KB; in the test with DU-145; in the test on A549; in test [1]; in the test with SK-BR-3) was more than 30 µM throughout.

With `O=c1cc(NC2CCCCC2)cc(-c2ccccc2)o1`, the EC50 was 16 µM in the test with KB; 7.47 µM with DU-145; 9.69 µM in the test on A549; 9.15 µM in test [1]; 10.9 µM in the test on SK-BR-3.

Consider `COc1ccc(Nc2cc(C(C)C)oc(=O)c2)cc1`, for which the EC50 (in the test on KB; with DU-145; in the test on A549; in test [1]; in the test on SK-BR-3) was more than 30 µM each time.

For the molecule `O=c1cc(Nc2ccc(Br)cc2)cc(-c2ccccc2)o1`, the EC50 came out at 0.32 µM in the test on KB; 0.34 µM in the test with DU-145; 0.31 µM in the test on A549; 0.24 µM in test [1]; 0.4 µM in the test with SK-BR-3.

For the molecule `O=c1cc(NC2CC2)cc(-c2ccccc2)o1`, the EC50 (in the test with KB; in the test with DU-145; with A549; in test [1]; in the test on SK-BR-3) was more than 30 µM each time.

For `COc1ccc(Nc2cc(-c3ccc4ccccc4c3)oc(=O)c2)cc1`, the EC50 turned out to be 0.18 µM in the test with KB; 0.15 µM in the test on DU-145; 0.15 µM in the test with A549; 0.13 µM in test [1]; 0.13 µM in the test with SK-BR-3.

`Nc1cc(=O)oc2c1ccc1ccccc12`: the EC50 in the test with KB was determined as 0.17 µM; in the test on DU-145 it was 0.11 µM; in the test on A549, 0.11 µM; in test [1], 0.13 µM; in the test with SK-BR-3 it was 0.13 µM.

As to `COc1cccc(Nc2cc(-c3ccccc3)oc(=O)c2)c1`, the EC50 in the test with KB amounted to 0.49 µM; in the test on DU-145, 0.66 µM; in the test with A549, 0.63 µM; in test [1] it was 0.55 µM; with SK-BR-3, 0.74 µM.

On to `COc1ccc(Nc2cc(Cc3ccccc3)oc(=O)c2)cc1`, for which the EC50 was 1.6 µM in the test with DU-145, 1.62 µM with A549, 1.3 µM in test [1] and 1.34 µM in the test on SK-BR-3.

As for `COc1ccc(Nc2cc(-c3ccco3)oc(=O)c2)cc1`, the EC50 was 2.66 µM in the test on KB; 1.95 µM with DU-145; 1.91 µM with A549; 1.46 µM in test [1]; 1.76 µM with SK-BR-3.

Regarding `COc1ccc(Nc2cc(/C=C/c3ccccc3)oc(=O)c2)cc1`, the EC50 in the test with KB amounted to 0.15 µM; in the test with DU-145 it was 0.11 µM; in the test with A549, 0.11 µM; in test [1] it was 0.1 µM; in the test on SK-BR-3, 0.083 µM.

As for `CCCCCc1cc(Nc2ccc(OC)cc2)cc(=O)o1`, the EC50 was determined as 10.1 µM in the test with KB; 5.94 µM in the test with DU-145; 4.42 µM in the test with A549; 4.84 µM in test [1]; 4.93 µM in the test on SK-BR-3.

For the molecule `COc1ccc(Nc2cc(C3CCCCC3)oc(=O)c2)cc1`, the EC50 came out at 8.32 µM in the test with KB; 8.61 µM with DU-145; 4.62 µM in the test with A549; 4.39 µM in test [1]; 5.29 µM in the test on SK-BR-3.

Regarding `COc1ccc(Nc2cc(-c3ccccc3)oc(=O)c2)cc1`, the EC50 in the test on KB amounted to 0.16 µM; in the test with DU-145, 0.12 µM; with A549, 0.093 µM; in test [1], 0.098 µM; in the test with SK-BR-3, 0.079 µM.

`O=c1cc(N2CCCCC2)cc(-c2ccccc2)o1`: the EC50 (in the test with KB; with DU-145; in the test on A549; in test [1]; with SK-BR-3) was more than 30 µM in each case.

`COc1ccc(Nc2cc(C3CCCC3)oc(=O)c2)cc1`: the EC50 with KB amounted to 8.38 µM; with DU-145, 5.42 µM; in the test on A549, 5.42 µM; in test [1] it was 4.98 µM; with SK-BR-3, 4.73 µM.

For `O=c1cc(NC2CCCCC2)cc(/C=C/c2ccccc2)o1`, the EC50 with KB was 2.02 µM; in the test on DU-145 it was 1.23 µM; with A549 it was 1.25 µM; in test [1] it was 1.24 µM; with SK-BR-3 it was 1.53 µM.
